System: 922993-354-T-J3-PDC complex spheroid viability
Experiment: Anticancer human tumor 922993-354-T-J3-PDC patient-derived endometrial carcinoma cell line growth inhibition [POLQ]
Details: for IC50: curve of first compound; for viability, T/C: stronger effect = lower value; active = viability on the fitted dose curve at most 10% of control; inactive = the rest
Procedure, shortened: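 Patient-derived tumour cells were co-cultured with HUVEC and mesenchymal stem cells as multicellular spheroids at 37 °C. They were treated with POLQ inhibitors (novobiocin, ART-558, RP6685) alone or combined with other agents. Top concentrations were at or near clinical Cmax (otherwise 10 microM; SN-38 at 1 microM), decreasing in half-log steps.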

[1] = second compound 0.0316 µM, first compound 0.0316 µM
[2] = second compound 0.0316 µM, first compound 0.1 µM
[3] = second compound 0.0316 µM, first compound 0.316 µM
[4] = second compound 0.0316 µM, first compound 1 µM
[5] = second compound 0.0316 µM, first compound 3.16 µM
[6] = second compound 0.0316 µM, first compound 10 µM
[7] = second compound 0.1 µM, first compound 0.0316 µM
[8] = second compound 0.1 µM, first compound 0.1 µM
[9] = second compound 0.1 µM, first compound 0.316 µM
[10] = second compound 0.1 µM, first compound 1 µM
[11] = second compound 0.1 µM, first compound 3.16 µM
[12] = second compound 0.1 µM, first compound 10 µM
[13] = second compound 0.316 µM, first compound 0.0316 µM
[14] = second compound 0.316 µM, first compound 0.1 µM
[15] = second compound 0.316 µM, first compound 0.316 µM
[16] = second compound 0.316 µM, first compound 1 µM
[17] = second compound 0.316 µM, first compound 3.16 µM
[18] = second compound 0.316 µM, first compound 10 µM
[19] = second compound 1 µM, first compound 0.0316 µM
[20] = second compound 1 µM, first compound 0.1 µM
[21] = second compound 1 µM, first compound 0.316 µM
[22] = second compound 1 µM, first compound 1 µM
[23] = second compound 1 µM, first compound 3.16 µM
[24] = second compound 1 µM, first compound 10 µM
[25] = second compound 3.16 µM, first compound 0.0316 µM
[26] = second compound 3.16 µM, first compound 0.1 µM
[27] = second compound 3.16 µM, first compound 0.316 µM
[28] = second compound 3.16 µM, first compound 1 µM
[29] = second compound 3.16 µM, first compound 3.16 µM
[30] = second compound 3.16 µM, first compound 10 µM
[31] = second compound 10 µM, first compound 0.0316 µM
[32] = second compound 10 µM, first compound 0.1 µM
[33] = second compound 10 µM, first compound 0.316 µM
[34] = second compound 10 µM, first compound 1 µM
[35] = second compound 10 µM, first compound 3.16 µM
[36] = second compound 10 µM, first compound 10 µM
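Note: spheroids exposed to the agents for one week.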
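Throughout, for viability, T/C: 100% = DMSO vehicle control wells.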

C#Cc1c(F)ccc2cc(O)cc(-c3ncc4c(N5CC6CCC(C5)N6)nc(OCC56CCCN5CC(F)C6)nc4c3F)c12 (stereo not given) + Nc1ccc(C#CCN(C(=O)Cc2ncc(C(F)(F)F)cc2C(F)(F)F)c2ccc(F)cc2)nn1
> 10 µM: IC50 (second compound 0.0316 µM) | IC50 (second compound 0.1 µM) | IC50 (second compound 0.316 µM) | IC50 (second compound 1 µM) | IC50 (second compound 3.16 µM) | IC50 (second compound 10 µM)
inactive: viability, T/C [1] 109% | viability, T/C [2] 106% | viability, T/C [3] 104% | viability, T/C [4] 102% | viability, T/C [5] 104% | viability, T/C [6] 102% | viability, T/C [7] 105% | viability, T/C [8] 101% | viability, T/C [9] 104% | viability, T/C [10] 101% | viability, T/C [11] 101% | viability, T/C [12] 102% | viability, T/C [13] 109% | viability, T/C [14] 108% | viability, T/C [15] 106% | viability, T/C [16] 103% | viability, T/C [17] 104% | viability, T/C [18] 102% | viability, T/C [19] 105% | viability, T/C [20] 107% | viability, T/C [21] 105% | viability, T/C [22] 106% | viability, T/C [23] 107% | viability, T/C [24] 98.2% | viability, T/C [25] 103% | viability, T/C [26] 106% | viability, T/C [27] 104% | viability, T/C [28] 104% | viability, T/C [29] 102% | viability, T/C [30] 100% | viability, T/C [31] 94.3% | viability, T/C [32] 99.9% | viability, T/C [33] 100% | viability, T/C [34] 99.1% | viability, T/C [35] 96.9% | viability, T/C [36] 92.5%

CCc1cc2c(N3CCc4c(cc(Cn5ccnc5)cc4-c4cn(C)nc4C(F)(F)F)C3=O)cc(C)nc2c(OC)n1 + Nc1ccc(C#CCN(C(=O)Cc2ncc(C(F)(F)F)cc2C(F)(F)F)c2ccc(F)cc2)nn1
inactive: viability, T/C [1] 103% | viability, T/C [2] 106% | viability, T/C [3] 105% | viability, T/C [4] 110% | viability, T/C [5] 107% | viability, T/C [6] 101% | viability, T/C [7] 108% | viability, T/C [8] 106% | viability, T/C [9] 108% | viability, T/C [10] 105% | viability, T/C [11] 101% | viability, T/C [12] 102% | viability, T/C [13] 103% | viability, T/C [14] 98.1% | viability, T/C [15] 105% | viability, T/C [16] 106% | viability, T/C [17] 109% | viability, T/C [18] 104% | viability, T/C [19] 102% | viability, T/C [20] 100% | viability, T/C [21] 107% | viability, T/C [22] 107% | viability, T/C [23] 106% | viability, T/C [24] 99.1% | viability, T/C [25] 99.8% | viability, T/C [26] 107% | viability, T/C [27] 102% | viability, T/C [28] 105% | viability, T/C [29] 103% | viability, T/C [30] 99.6% | viability, T/C [31] 99% | viability, T/C [32] 98.3% | viability, T/C [33] 100% | viability, T/C [34] 102% | viability, T/C [35] 99.3% | viability, T/C [36] 92%
> 10 µM: IC50 (second compound 0.0316 µM) | IC50 (second compound 0.1 µM) | IC50 (second compound 0.316 µM) | IC50 (second compound 1 µM) | IC50 (second compound 3.16 µM) | IC50 (second compound 10 µM)

CCc1cc2c(N3CCc4c(cc(Cn5ccnc5)cc4-c4cn(C)nc4C(F)(F)F)C3=O)ccnc2c(OC)n1 + Nc1ccc(C#CCN(C(=O)Cc2ncc(C(F)(F)F)cc2C(F)(F)F)c2ccc(F)cc2)nn1
inactive: viability, T/C [1] 104% | viability, T/C [2] 103% | viability, T/C [3] 105% | viability, T/C [4] 107% | viability, T/C [5] 107% | viability, T/C [6] 102% | viability, T/C [7] 106% | viability, T/C [8] 102% | viability, T/C [9] 107% | viability, T/C [10] 108% | viability, T/C [11] 106% | viability, T/C [12] 101% | viability, T/C [13] 105% | viability, T/C [14] 102% | viability, T/C [15] 103% | viability, T/C [16] 105% | viability, T/C [17] 103% | viability, T/C [18] 99.6% | viability, T/C [19] 105% | viability, T/C [20] 105% | viability, T/C [21] 102% | viability, T/C [22] 108% | viability, T/C [23] 105% | viability, T/C [24] 94.3% | viability, T/C [25] 102% | viability, T/C [26] 99.5% | viability, T/C [27] 104% | viability, T/C [28] 99% | viability, T/C [29] 106% | viability, T/C [30] 97.5% | viability, T/C [31] 99.2% | viability, T/C [32] 102% | viability, T/C [33] 99.4% | viability, T/C [34] 96.6% | viability, T/C [35] 100% | viability, T/C [36] 91%
> 10 µM: IC50 (second compound 0.0316 µM) | IC50 (second compound 0.1 µM) | IC50 (second compound 0.316 µM) | IC50 (second compound 1 µM) | IC50 (second compound 3.16 µM) | IC50 (second compound 10 µM)

COc1cc2cc(C(=O)CCC(=O)O)sc2cc1OC + Nc1ccc(C#CCN(C(=O)Cc2ncc(C(F)(F)F)cc2C(F)(F)F)c2ccc(F)cc2)nn1
inactive: viability, T/C [1] 104% | viability, T/C [2] 105% | viability, T/C [3] 108% | viability, T/C [4] 102% | viability, T/C [5] 109% | viability, T/C [6] 84.6% | viability, T/C [7] 108% | viability, T/C [8] 105% | viability, T/C [9] 103% | viability, T/C [10] 95.6% | viability, T/C [11] 104% | viability, T/C [12] 78.9% | viability, T/C [13] 102% | viability, T/C [14] 103% | viability, T/C [15] 98.3% | viability, T/C [16] 97.7% | viability, T/C [17] 102% | viability, T/C [18] 82.1% | viability, T/C [19] 102% | viability, T/C [20] 99.6% | viability, T/C [21] 108% | viability, T/C [22] 102% | viability, T/C [23] 103% | viability, T/C [24] 81% | viability, T/C [25] 99% | viability, T/C [26] 102% | viability, T/C [27] 98.5% | viability, T/C [28] 104% | viability, T/C [29] 105% | viability, T/C [30] 84% | viability, T/C [31] 94.6% | viability, T/C [32] 95.2% | viability, T/C [33] 97.7% | viability, T/C [34] 95% | viability, T/C [35] 104% | viability, T/C [36] 78.8%
> 10 µM: IC50 (second compound 0.0316 µM) | IC50 (second compound 0.1 µM) | IC50 (second compound 0.316 µM) | IC50 (second compound 1 µM) | IC50 (second compound 3.16 µM) | IC50 (second compound 10 µM)

O=C(Nc1ccc(O)c(NS(=O)(=O)c2ccc(F)cc2)c1)c1ccc(-c2ccccc2)cc1 + Nc1ccc(C#CCN(C(=O)Cc2ncc(C(F)(F)F)cc2C(F)(F)F)c2ccc(F)cc2)nn1
> 10 µM: IC50 (second compound 0.0316 µM) | IC50 (second compound 0.1 µM) | IC50 (second compound 0.316 µM) | IC50 (second compound 1 µM) | IC50 (second compound 3.16 µM) | IC50 (second compound 10 µM)
inactive: viability, T/C [1] 99.8% | viability, T/C [2] 107% | viability, T/C [3] 99.4% | viability, T/C [4] 102% | viability, T/C [5] 105% | viability, T/C [6] 96.2% | viability, T/C [7] 101% | viability, T/C [8] 97.6% | viability, T/C [9] 99.4% | viability, T/C [10] 97.6% | viability, T/C [11] 99.1% | viability, T/C [12] 102% | viability, T/C [13] 100% | viability, T/C [14] 100% | viability, T/C [15] 99.1% | viability, T/C [16] 95.1% | viability, T/C [17] 103% | viability, T/C [18] 105% | viability, T/C [19] 102% | viability, T/C [20] 94.8% | viability, T/C [21] 104% | viability, T/C [22] 93% | viability, T/C [23] 105% | viability, T/C [24] 99% | viability, T/C [25] 101% | viability, T/C [26] 97.7% | viability, T/C [27] 100% | viability, T/C [28] 97.4% | viability, T/C [29] 105% | viability, T/C [30] 103% | viability, T/C [31] 97.6% | viability, T/C [32] 99.7% | viability, T/C [33] 95% | viability, T/C [34] 99.1% | viability, T/C [35] 103% | viability, T/C [36] 102%

Reference: PubChem BioAssay AID1963830 (Molecular Pharmacology Branch, DTP, NCI, 2024)
